Measurements published in patent US7317034B2, “Substituted C-furan-2-yl-methylamine and C-thiophen-2-yl-methylamine compounds” (Gruenenthal GmbH, priority 2001, dated 2008).

Biological target: binding site 2 of the sodium channel (BTX binding site)
Assay: Binding to the sodium channel, binding site 2 (BTX binding), [3H]-batrachotoxinin A20 α-benzoate displacement
Details: rat cerebrocortex synaptosomes; for BTX binding (10 μM): 10 μM test compound, ligand [3H]-batrachotoxinin A20 α-benzoate 10 nM, 120 min at 25° C.

Q: “[3H]-batrachotoxinin A20 α-benzoate [reference compound]” was tested. Which Kd (radioligand [3H]-batrachotoxinin A20 α-benzoate, N=2, mean±SEM, read-out: KD value for that binding site) did it give?
A: 24.6 ± 1.56 nM

Q: With `COC(=O)c1cc(C(Nc2ccc(Cl)cc2F)C(=O)c2ccccc2)oc1C` (centres unmarked) [C, 5-[1-(4-Chloro-2-fluoro-phenylamino)-2-oxo-2-phenyl-ethyl]-2-methyl-furan-3-carboxylic acid methyl ester] as the molecule, how does the “BTX binding (10 μM)” value read?
A: 57%

Q: How did the “BTX binding (10 μM)” value turn out when `COC(=O)c1cc(C(Nc2ccc(Cl)cc2C)C(=O)c2ccccc2)oc1C` (centres unmarked) [Example B, 5-[1-(4-Chloro-2-methyl-phenylamino)-2-oxo-2-phenyl-ethyl]-2-methyl-furan-3-carboxylic acid methyl ester] was run?
A: 55%

Q: For `CCOC(=O)c1cc(C(Nc2ccc(Cl)cc2C)C(=O)c2ccccc2)oc1C` (centres unmarked) [D, 5-[1-(4-Chloro-2-methyl-phenylamino)-2-oxo-2-phenyl-ethyl]-2-methyl-furan-3-carboxylic acid ethyl ester], which “BTX binding (10 μM)” value is on record?
A: 37%

Q: Which “BTX binding (10 μM)” value does the source give for “5-[1-(2-Chloro-phenylamino)-2-oxo-2-phenyl-ethyl]-2-methyl-furan-3-carboxylic acid ethyl ester” here?
A: 40%
